These results are taken from patent US20050196744A1 (priority 2004, published 2005).

The target of series [1] is T1, D79E DAT (Rattus norvegicus, UniProt P23977, D79E).
T1 construct: expressed in transfected cells; host or cells: CHO-K1, stably transfected; intact attached monolayers
T1 sequence (P23977 1-619 D79E): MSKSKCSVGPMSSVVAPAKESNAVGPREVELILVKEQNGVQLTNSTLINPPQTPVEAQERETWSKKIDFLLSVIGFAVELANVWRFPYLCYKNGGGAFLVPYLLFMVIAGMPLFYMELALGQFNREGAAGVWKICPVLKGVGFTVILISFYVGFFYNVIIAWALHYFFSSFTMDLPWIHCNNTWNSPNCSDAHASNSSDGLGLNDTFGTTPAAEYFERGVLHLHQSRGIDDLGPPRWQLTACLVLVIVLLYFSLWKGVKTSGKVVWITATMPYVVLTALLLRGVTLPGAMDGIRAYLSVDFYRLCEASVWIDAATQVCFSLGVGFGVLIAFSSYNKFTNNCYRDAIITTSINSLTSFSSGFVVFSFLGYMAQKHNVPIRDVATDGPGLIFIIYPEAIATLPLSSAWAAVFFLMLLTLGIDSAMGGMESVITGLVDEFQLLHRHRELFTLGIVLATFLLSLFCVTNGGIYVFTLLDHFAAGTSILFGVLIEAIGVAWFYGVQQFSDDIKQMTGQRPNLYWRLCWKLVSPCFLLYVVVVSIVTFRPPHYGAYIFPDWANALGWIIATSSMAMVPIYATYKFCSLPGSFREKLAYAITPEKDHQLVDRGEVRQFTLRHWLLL
Nature of the series: [3H]-dopamine uptake and uptake inhibition, CHO cells stably expressing D79E DAT. The format is cell-based.

The target in series [2] is T1, D79E DAT. Put plainly: [3H]-WIN 35,428 binding / displacement at CHO cells stably expressing D79E DAT. The settings on record: for loss of binding affinity ([3H]-WIN 35,428 displacement) caused by the D79E mutation (D79E vs WT DAT): CHO cells, comparison of Ki values. How it is done: (§1) Ligand binding assays. […] Nonradioactive competitor concentrations were as indicated above for uptake inhibition. […] Membranes were aspirated with a Brandel harvester onto GF/B glass-fiber filter paper, washed with 3×5 ml cold binding buffer, and the filters measured for radioactivity via scintillation counting. For all binding assays, data were analyzed with the GraphPad Prism 2.0 software to obtain Kd, Ki and Bmax values.

Series [3] concerns the target T2, WT DAT (Rattus norvegicus, UniProt P23977).
T2 construct: expressed in transfected cells; host or cells: CHO-K1, stably transfected (G-418 selection); intact monolayers in A1 and A3, membranes in A5
Nature of the series: [3H]-dopamine uptake and uptake inhibition, CHO cells stably expressing WT DAT. It is filed as cell-based.

Series [4] deals with T2, WT DAT. Put plainly: [3H]-WIN 35,428 binding / displacement at intact CHO cells stably expressing WT DAT. On the procedure:
as §1

For the next series, the system named is intact naïve CHO cells. Put plainly: [3H]-WIN 35,428 low affinity site of intact naïve CHO cells. It is filed as binding. The settings on record: intact naïve (untransfected) CHO cells. On the procedure: To further address this steric issue, dihydroxy-benzylamine (DHBA) was employed as a potential DAT substrate. […] Ligand binding assays were conducted under conditions that matched those for assaying uptake inhibition.

Substrate in series [5]: NCCc1ccc(O)c(O)c1
Nature of the series: cells, lysate or membranes. The settings on record: 22° C., KRH buffer, mean ± standard error, pH 7.3.

[6] abbreviates: CHO cells, comparison of Ki values.
Where [7] appears, read: DAT substrates, CHO cells, WT DAT, 22° C., KRH buffer, mean ± standard error, read-out: Ki, inhibition of [3H]-DA uptake.
Setting [8] is: DAT substrates, CHO cells, D79E DAT, 22° C., KRH buffer, mean ± standard error, read-out: Ki, inhibition of [3H]-DA uptake.
Where [9] appears, read: DAT substrates, intact CHO cells, D79E DAT, 1 nM [3H]-WIN 35,428, 15 min, 22° C., read-out: Ki, [3H]-WIN inhibition (binding affinity).
Setting [10] is: DAT substrates, intact CHO cells, WT DAT, 1 nM [3H]-WIN 35,428, 15 min, 22° C., read-out: Ki, [3H]-WIN inhibition (binding affinity).

Values joined by “and” are separate entries in the source; they are usually repeats but may differ in a detail not shown here. Identical values can stand only once. Marks after values point to notes of the source that are not given here.

For the molecule `COC(=O)C(c1ccccc1)C1CCCCN1` (stereo not shown) [Methylphenidate, methylphenidate], the Ki on D79E DAT [1] came out at 161 ± 9 nM; at D79E DAT [2], 0.167 ± 0.002 µM. Moreover, the “loss of dopamine uptake inhibition potency caused by the D79E mutation (D79E vs WT DAT)” value on D79E DAT [1] (setting [6]) was “no effect”.

Regarding `OC1(c2ccc(Cl)cc2)c2ccccc2C2=NCCN21` (stereo not shown) [Mazindol, mazindol], the Ki at WT DAT [3] turned out to be 0.031 ± 0.003 µM; at D79E DAT [1], 47 ± 4 nM; at D79E DAT [2] it was 0.041 ± 0.003 µM; on WT DAT [4], 13 ± 1 nM. In addition, the “loss of dopamine uptake inhibition potency caused by the D79E mutation (D79E vs WT DAT)” value on D79E DAT [1] (setting [6]) is listed as “no effect”.

With `COC(=O)[C@H]1[C@@H](c2ccc(F)cc2)C[C@@H]2CC[C@H]1N2C` [WIN 35,428], on D79E DAT [1] (setting [6]), the “loss of dopamine uptake inhibition potency caused by the D79E mutation (D79E vs WT DAT)” value is recorded as “no effect”. Moreover, on D79E DAT [2] (D79E DAT, suspended cells or cell membrane preparation in KRH uptake buffer), the “specific binding of [3H]-WIN 35,428” value is reported as “undetectable”. In the series with intact naïve CHO cells, this molecule yielded a dissociation constant Kd greater than 1000 nM.

Regarding `NCCc1ccc(O)cc1` [p-Tyramine], the Ki at WT DAT [3] (setting [7]) amounted to 1.7 ± 0.1 µM; on D79E DAT [1] (setting [8]), 3300 ± 400 nM; at D79E DAT [2] (setting [9]), 4.3 ± 0.5 µM; at WT DAT [4] (setting [10]), 800 nM. Besides, the “loss of dopamine uptake inhibition potency caused by the D79E mutation (D79E vs WT DAT)” value at D79E DAT [1] (setting [6]) was 2 fold.

Take `NCCc1ccc(O)c(O)c1` [Dopamine, dopamine]: the “Vmax/Bmax (dopamine turnover rate)” value on WT DAT [3] (WT DAT CHO cells, Bmax from [3H]-WIN 35,428 saturation binding) came to 34.1 min⁻¹; at D79E DAT [1] (D79E DAT CHO cells, Bmax from [3H]-WIN 35,428 saturation binding), 7.9 min⁻¹. Besides, the “Vmax of dopamine uptake” value at WT DAT [3] (WT DAT CHO cells, dopamine at 0.1 Ci/mmol, 5 min, 22° C.) is 348 ± 22 pmol/mg/min; on D79E DAT [1] (D79E DAT CHO cells, dopamine at 0.1 Ci/mmol, 5 min, 22° C.), 48 ± 4^a pmol/mg/min. For the same molecule, the “WT DAT turnover rate higher than that for D79E DAT CHO cells” value on WT DAT [3] ([3H]-dopamine uptake kinetics, CHO cells) came out at 7 fold. For the same molecule, the “decrease in DAT dopamine turnover rate rendered by the D79E mutation” value at D79E DAT [1] (corrected for fewer transporters at the cell surface) was “approximately 4 fold”. Further, the “loss of binding affinity ([3H]-WIN 35,428 displacement) caused by the D79E mutation (D79E vs WT DAT)” value (shortened to “loss of binding affinity … (D79E vs WT DAT)”) at D79E DAT [2] was “almost identical”.

As for dihydroxybenzylamine [DHBA], the Ki at WT DAT [3] (setting [7]) was 5760 ± 540 µM; at D79E DAT [1] (setting [8]) it was 782000 ± 22000 nM; at D79E DAT [2] (setting [9]) it was 791 ± 27 µM; at WT DAT [4] (setting [10]) it was 800000 nM and 801000 nM. Further, the “Ki at D79E DAT relative to the Ki value for dopamine binding at WT DAT (higher)” value on D79E DAT [1] was 377 fold. The “Ki for uptake inhibition at D79E DAT relative to the dopamine Km value at WT DAT (higher)” value at D79E DAT [1] was 460 fold. For the same molecule, the “potency in inhibiting [3H]-dopamine uptake, higher at D79E DAT compared to WT DAT” value on D79E DAT [1] (setting [6]) is 7 fold. In addition, the “loss of binding affinity … (D79E vs WT DAT)” value on D79E DAT [2] is listed as “identical”. In addition, on D79E DAT [2] (intact CHO cells, D79E DAT), the “potency of inhibition of [3H]-WIN 35,428 binding compared with potency for inhibition of [3H]-dopamine uptake at D79E DAT” value is listed as “agrees well”. Further, the “more potent as inhibitor of [3H]-WIN 35,428 binding than as inhibitor of [3H]-dopamine uptake at WT DAT” value on WT DAT [4] (intact CHO cells stably expressing WT DAT) amounted to 7 fold.

Turning to `NCCc1cccc(O)c1` [m-Tyramine], the Ki is 1.4 ± 0.3 µM at WT DAT [3] (setting [7]), 1200 ± 300 nM on D79E DAT [1] (setting [8]), 6.6 ± 1.2 µM on D79E DAT [2] (setting [9]) and 1000 nM at WT DAT [4] (setting [10]). Moreover, the “loss of dopamine uptake inhibition potency caused by the D79E mutation (D79E vs WT DAT)” value at D79E DAT [1] (setting [6]) is listed as “unchanged”.

For `NC[C@H](O)c1ccc(O)c(O)c1` [Norepinephrine], the Ki on WT DAT [3] (setting [7]) was determined as 5.4 µM; at D79E DAT [1] (setting [8]), 5200 ± 300 nM; on D79E DAT [2], 5.5 ± 0.7 µM; at WT DAT [4] (setting [10]), 2300 nM. Moreover, the “loss of dopamine uptake inhibition potency caused by the D79E mutation (D79E vs WT DAT)” value at D79E DAT [1] (setting [6]) is listed as “equally effective”. In addition, the “loss of binding affinity … (D79E vs WT DAT)” value on D79E DAT [2] is on record as 2 fold.

B1: WT DAT (Rattus norvegicus) (protein)
chain: MSKSKCSVGPMSSVVAPAKESNAVGPREVELILVKEQNGVQLTNSTLINPPQTPVEAQERETWSKKIDFLLSVIGFAVDLANVWRFPYLCYKNGGGAFLVPYLLFMVIAGMPLFYMELALGQFNREGAAGVWKICPVLKGVGFTVILISFYVGFFYNVIIAWALHYFFSSFTMDLPWIHCNNTWNSPNCSDAHASNSSDGLGLNDTFGTTPAAEYFERGVLHLHQSRGIDDLGPPRWQLTACLVLVIVLLYFSLWKGVKTSGKVVWITATMPYVVLTALLLRGVTLPGAMDGIRAYLSVDFYRLCEASVWIDAATQVCFSLGVGFGVLIAFSSYNKFTNNCYRDAIITTSINSLTSFSSGFVVFSFLGYMAQKHNVPIRDVATDGPGLIFIIYPEAIATLPLSSAWAAVFFLMLLTLGIDSAMGGMESVITGLVDEFQLLHRHRELFTLGIVLATFLLSLFCVTNGGIYVFTLLDHFAAGTSILFGVLIEAIGVAWFYGVQQFSDDIKQMTGQRPNLYWRLCWKLVSPCFLLYVVVVSIVTFRPPHYGAYIFPDWANALGWIIATSSMAMVPIYATYKFCSLPGSFREKLAYAITPEKDHQLVDRGEVRQFTLRHWLLL
For B1, the Km in series [5] (other: CHO cells stably expressing WT DAT) came out at 1.7 ± 0.3 µM.

B2: D79E DAT (Rattus norvegicus; D79E) (protein)
chain: MSKSKCSVGPMSSVVAPAKESNAVGPREVELILVKEQNGVQLTNSTLINPPQTPVEAQERETWSKKIDFLLSVIGFAVELANVWRFPYLCYKNGGGAFLVPYLLFMVIAGMPLFYMELALGQFNREGAAGVWKICPVLKGVGFTVILISFYVGFFYNVIIAWALHYFFSSFTMDLPWIHCNNTWNSPNCSDAHASNSSDGLGLNDTFGTTPAAEYFERGVLHLHQSRGIDDLGPPRWQLTACLVLVIVLLYFSLWKGVKTSGKVVWITATMPYVVLTALLLRGVTLPGAMDGIRAYLSVDFYRLCEASVWIDAATQVCFSLGVGFGVLIAFSSYNKFTNNCYRDAIITTSINSLTSFSSGFVVFSFLGYMAQKHNVPIRDVATDGPGLIFIIYPEAIATLPLSSAWAAVFFLMLLTLGIDSAMGGMESVITGLVDEFQLLHRHRELFTLGIVLATFLLSLFCVTNGGIYVFTLLDHFAAGTSILFGVLIEAIGVAWFYGVQQFSDDIKQMTGQRPNLYWRLCWKLVSPCFLLYVVVVSIVTFRPPHYGAYIFPDWANALGWIIATSSMAMVPIYATYKFCSLPGSFREKLAYAITPEKDHQLVDRGEVRQFTLRHWLLL
In the case of B2, in series [5] (other: CHO cells stably expressing D79E DAT), the Km was 2.3 ± 0.3^ μM.
